The values below come from article PMC8097418, “In Vitro and In Vivo Antibacterial Activities of a Novel Quinolone Compound, OPS-2071, against Clostridioides difficile” (Antimicrobial Agents and Chemotherapy, 2021).

In brackets after ≈: the same amount, converted by molar mass. Like-named read-outs stand apart in the source and are kept apart here.

The target of test [1] is DNA gyrase of C. difficile (Clostridioides difficile, UniProt Q18C89+Q18C90). The test can be described thus: biochemical.
For test [2], the system named is 10 clinical isolates of C. difficile. Description: MIC (broth dilution) and MBC testing, 10 clinical isolates. The class given is cell-based, Clostridioides difficile. The settings on record: 10 clinical isolates. As to the method:
In this test, MIC testing was performed using the broth dilution method as recommended in the CLSI ([41]). After the MICs were determined, 10 μl of the bacterial suspension from the MIC test tube was inoculated onto agar plates and incubated at 37°C. The bacterial colonies were then counted and bacterial numbers were calculated. The MBC was considered to be the lowest concentration of the antibiotics that prevented growth and reduced the inoculum by >99.9% within 48 h, irrespective of counts of survivors at higher antibiotic concentrations.
(In general: Dilution methods test growth across graded concentrations, often in twofold steps.)

For test [3], the system named is C. difficile ATCC 700057. The test can be described thus: Killing kinetics (time-kill curves). The format is cell-based, Clostridioides difficile. As to the method: The test tubes were incubated for 48 h. The CFU/ml values of the bacterial suspensions were calculated at 0, 2, 4, 6, 24, and 48 h by culturing 0.1-ml samples of serial 10-fold dilutions on GAM agar plates at 37°C under anaerobic conditions and then counting the number of growing colonies. The CFU/ml value at each time point is from one sample of datum.

In test [4] the test system is hypervirulent and nonhypervirulent strains of C. difficile (62 strains). Description: MIC distribution against 20 hypervirulent and 42 nonhypervirulent strains. The settings on record: for MIC50 / MIC90: Clostridioides difficile. The class given is cell-based, Clostridioides difficile.
Test [5] concerns C. difficile ATCC 700057. The test can be described thus: MIC by broth dilution (GAM broth). The format is cell-based, Clostridioides difficile. The settings on record: Clostridioides difficile, read-out: MIC. The protocol:
MICs obtained using the agar dilution method were determined visually as described for the CLSI method ([41], [42]). MICs obtained using the broth dilution method were determined visually based on the CLSI method except for using Gifu anaerobic medium (GAM) broth instead of supplemented Brucella broth ([41], [42]).

Where [6] appears, read: nonhypervirulent strains (n = 42).

DNA gyrase of C. difficile, sequence (Q18C90 entry or part of it): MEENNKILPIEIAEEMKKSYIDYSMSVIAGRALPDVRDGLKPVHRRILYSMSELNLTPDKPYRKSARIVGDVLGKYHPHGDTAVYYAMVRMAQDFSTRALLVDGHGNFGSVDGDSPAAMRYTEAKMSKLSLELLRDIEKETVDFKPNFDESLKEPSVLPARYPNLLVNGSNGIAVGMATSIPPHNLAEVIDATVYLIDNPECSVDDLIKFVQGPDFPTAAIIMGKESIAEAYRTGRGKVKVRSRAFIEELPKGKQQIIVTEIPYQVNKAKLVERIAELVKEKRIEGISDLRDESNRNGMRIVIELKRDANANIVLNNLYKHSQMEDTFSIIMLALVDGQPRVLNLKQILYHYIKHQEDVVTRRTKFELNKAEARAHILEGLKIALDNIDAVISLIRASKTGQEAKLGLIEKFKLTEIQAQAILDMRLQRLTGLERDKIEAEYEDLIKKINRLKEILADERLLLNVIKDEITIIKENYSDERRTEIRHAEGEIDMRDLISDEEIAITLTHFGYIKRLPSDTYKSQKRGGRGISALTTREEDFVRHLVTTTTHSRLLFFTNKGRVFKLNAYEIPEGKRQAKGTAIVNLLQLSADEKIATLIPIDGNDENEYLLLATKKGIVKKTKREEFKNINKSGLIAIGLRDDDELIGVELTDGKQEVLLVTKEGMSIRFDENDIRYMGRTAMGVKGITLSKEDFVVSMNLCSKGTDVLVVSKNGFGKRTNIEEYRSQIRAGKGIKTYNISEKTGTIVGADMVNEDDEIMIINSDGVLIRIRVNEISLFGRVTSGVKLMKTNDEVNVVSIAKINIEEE
DNA gyrase of C. difficile, sequence (Q18C89 entry or part of it): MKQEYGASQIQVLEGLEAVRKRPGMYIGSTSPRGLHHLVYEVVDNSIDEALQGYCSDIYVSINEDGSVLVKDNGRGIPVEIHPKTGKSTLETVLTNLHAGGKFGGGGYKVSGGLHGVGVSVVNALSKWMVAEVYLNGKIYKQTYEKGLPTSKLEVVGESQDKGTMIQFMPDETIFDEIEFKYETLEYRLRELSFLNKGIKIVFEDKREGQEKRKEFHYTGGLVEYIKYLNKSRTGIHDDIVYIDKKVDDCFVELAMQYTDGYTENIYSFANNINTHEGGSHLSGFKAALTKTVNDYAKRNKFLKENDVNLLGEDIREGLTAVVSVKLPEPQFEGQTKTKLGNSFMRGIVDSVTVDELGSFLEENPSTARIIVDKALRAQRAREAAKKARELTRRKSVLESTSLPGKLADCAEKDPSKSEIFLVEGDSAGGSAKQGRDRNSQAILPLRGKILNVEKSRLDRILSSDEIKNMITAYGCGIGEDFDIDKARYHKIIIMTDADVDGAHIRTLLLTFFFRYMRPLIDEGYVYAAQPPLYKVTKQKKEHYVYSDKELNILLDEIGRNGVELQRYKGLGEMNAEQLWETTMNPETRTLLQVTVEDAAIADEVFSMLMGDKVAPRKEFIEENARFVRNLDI

Compound `Cc1c(-c2cnc(N)c(C#N)c2)c(F)cc2c(=O)c(C(=O)O)cn(C3CC3)c12` [OPS-2071, 7-(6-amino-5-cyanopyridin-3-yl)-1-cyclopropyl-6-fluoro-8-methyl-4-oxo-1,4-dihydroquinoline-3-carboxylic acid] gave an IC50 in test [1] of 608 nM. In test [2], this compound yielded an MBC90/MIC90 of 1. Also, the “MBC Range” value in test [2] (>99.9% reduction within 48 h) lay in the range of 0.03 to 0.5 µg/mL. For the same compound, the “MIC range” value in test [2] (broth dilution) fell in the range of 0.03 to 0.5 µg/mL; in test [4] (hypervirulent strains (n = 20)), 0.03 to 0.25 µg/mL; in test [4] (setting [6]), 0.03 to 0.25 µg/mL. Moreover, the MIC90 in test [2] (Clostridioides difficile, broth dilution, read-out: MIC90) was 0.5 µg/mL (≈ 1.32 µM); in test [4] (hypervirulent strains (n = 20)) it was 0.25 µg/mL (≈ 0.661 µM); in test [4] (setting [6]), 0.125 µg/mL (≈ 0.33 µM). Moreover, in test [2] (Clostridioides difficile, read-out: MBC90), the MBC is 0.5 µg/mL (≈ 1.32 µM). Further, the “regrowth of the bacteria” value in the test on C. difficile ATCC 700057 [3] (after 48 h of incubation) was “regrowth of the bacteria did not occur”. Moreover, in the test on C. difficile ATCC 700057 [3] (concentrations higher than the MIC), the “time to undetectable level of viable bacteria” value is at most 24 h. Further, the “reduction of viable bacteria” value with C. difficile ATCC 700057 [3] (concentrations higher than the MIC, first 2 h) amounted to 2 log. In addition, the MIC50 in test [4] (hypervirulent strains (n = 20)) and in test [4] (setting [6]) was 0.03 µg/mL (≈ 0.0793 µM) in each case. Further, the “Cumulative percentage of strains” value in test [4] (Hyp (n = 20), MIC 0.063 μg/ml) turned out to be 75%; in test [4] (Hyp (n = 20), MIC 0.25 μg/ml), 100%; in test [4] (Non-hyp (n = 42), MIC 0.063 μg/ml), 88%; in test [4] (Non-hyp (n = 42), MIC 0.25 μg/ml), 100%. Besides, the MIC in the test with C. difficile ATCC 700057 [5] (ATCC700057, broth dilution, retested for the time-kill assay) was 0.03 µg/mL (≈ 0.0793 µM); in the test with C. difficile ATCC 700057 [5] (ATCC700057, broth method, determined for the PAE assay), 0.06 µg/mL (≈ 0.159 µM).

For orientation: IC50 means the concentration that inhibits the measured activity by half. Read a low IC50 as greater potency. For orientation: MIC90 means the lowest concentration that inhibits either 90% of growth or 90% of the strains tested, depending on the study. As a reminder, the MIC50 is an inhibitory concentration at the 50% level, which refers to growth in some studies and to a panel of isolates in others. The term MIC denotes the lowest concentration found to suppress growth.
